Holding throughout (type): in vivo, rat
The test system of one data set is SD rats. As to the kind of experiment: Test of antiplatelet aggregation effect (bleeding time) in rats. The protocol: (§1) Animal tests supporting the effects of the present invention were carried out as described in Table 10 below. [table]
In another data set the test system is SHR rats. Nature of the data set: Test of antihypertensive effect in rats. The note with it: light, p.o. The protocol: as §1
The test system of a further data set is rats. As to the kind of experiment: Test of comparison of gastric mucosal injury in rats (index of gastric mucosal bleeding). Particulars: Table 16.
The mark [1] stands for this setting: Day 0, simvastatin 5 mg/kg alone.
The mark [2] stands for this setting: Day 5, simvastatin 5 mg/kg alone.

In turn, `CCC(C)(C)C(=O)O[C@H]1C[C@@H](C)C=C2C=C[C@H](C)[C@H](CC[C@@H]3C[C@@H](O)CC(=O)O3)[C@H]21` [simvastatin] came in with a Bleeding time in the data set with SD rats (SD rats, simvastatin alone, light conditions, p.o., 2 hrs after administration) of 782 ± 429 s. Also, in the data set on SHR rats (setting [1]), the “Diastolic blood pressure (DBP)” value is recorded as 124.3 ± 15.5, the “Mean blood pressure (MBP)” value is recorded as 139.0 ± 12.4 and the “Systolic blood pressure (SBP)” value stood at 171.0 ± 8.7. For the same molecule, in the data set on SHR rats (setting [2]), the “Diastolic blood pressure (DBP)” value is given as 125.1 ± 17.1, the “Mean blood pressure (MBP)” value is 131.3 ± 12.6 and the “Systolic blood pressure (SBP)” value is recorded as 173.9 ± 9.2.
`CC(=O)Oc1ccccc1C(=O)O` [aspirin]: in the data set with SD rats (rats, bleeding time, summary of Table 12), the “platelet aggregation inhibitory effect” value is given as “increased in proportion to the dose of aspirin”. Besides, the “occurrence of gastrointestinal disturbance” value in the data set on rats is listed as “increased in proportion to an increase in the dose of aspirin”.

These data come from patent US20120015032A1, “COMBINATION PREPARATION COMPRISING INHIBITOR OF HMG-COA REDUCTASE AND ASPIRIN AND METHOD FOR MANUFACTURING THE SAME” (HANALL PHARMACEUTICAL COMPANY, LTD., priority 2007, published 2012).
